US10710978B2, “STK4 inhibitors for treatment of hematologic malignancies” (Dana-Farber Cancer Institute, Inc., priority 2015, dated 2020)
“And” between values parts separate entries of the source, which are not always exact repeats. Identical values can stand only once.

Columns and labels:
STK24 (MST3) = STK24 (MST3) (Homo sapiens (Human), UniProt Q9Y6E0); test: Z-lyte biochemical IC50 assay (Invitrogen); conditions: ATP concentration matched the Km
Experimental: (§1) STK4 (MST1), STK3 (MST2); STK24 (MST3) and MST4 Assays
(§2) Biochemical IC50s were measured at Invitrogen using Z-lyte technology. Briefly, for STK4, the 2×STK4 (MST1)/Ser/Thr 07 mixture was prepared in 50 mM HEPES pH 7.5, 0.01% BRIJ35, 10 mM MgCl2, 1 mM EGTA. The final 10 μL Kinase Reaction consisted of 6.25-160 ng STK4 (MST1) and 2 μM Ser/Thr 07 in 50 mM HEPES pH 7.5, 0.01% BRIJ-35, 10 mM MgCl2, 1 mM EGTA. After the 1 hour Kinase Reaction incubation, 5 μL of a 1:100000 dilution of Development Reagent A was added. Compounds were screened in a 10 point titration with 3-fold serial dilutions starting at a concentration of 10 μM. The biochemical IC50s against other STK family members were measured similarly. The ATP concentration used matched the Km for each kinase.

STK4 (MST1) = STK4 (MST1) (Homo sapiens (Human), UniProt Q13043); test: Z-lyte biochemical IC50 assay (Invitrogen); conditions: ATP concentration matched the Km
Experimental: as §1, §2

STK3 (MST2) = STK3 (MST2) (Homo sapiens (Human), UniProt Q13188); test: Z-lyte biochemical IC50 assay (Invitrogen); conditions: ATP concentration matched the Km
Experimental: as §1, §2

YAP1 = test: Western blotting; assay type: cell-based; conditions: H929 and MM.1S cells, 3 μM and 10 μM, 72 hours
Description: (§3) MM.1S, KMS20 and H929 cells are counted, diluted and plated. Cells are then […] with DMSO or different concentration of a compound of the present application for 6 hrs, 24 hrs or 48 hrs. MM cells are then collected and centrifuged at RT and the pellets are re-suspended in lysis buffer. Cell lysates are subjected to sodium dodecyl sulfate-polyacrylamide gel electrophoresis SDS-PAGE, transferred to nitrocellulose membranes, and immunoblotted with different antibodies.
(§4) MM.1S, KMS20 and H929 cells were counted, diluted and plated in six-well plates to a final concentration of 500,000 cells/well. Cells were then […] with DMSO or different concentration of a compound of the present application for 6 hrs, 24 hrs or 48 hrs. MM cells were then collected and centrifuged for 5 min, 1300 rpm at RT. The pellets were re-suspended in lysis buffer Laemli 1× (Laemli 5×: SDS 10%, DTT 500 mM, Tris-HCl pH6.8 0.4M, BromoFenol Blue, Glycerol 50%). Cell lysates were subjected to sodium dodecyl sulfate-polyacrylamide gel electrophoresis SDS-PAGE, transferred to nitrocellulose membranes, and immunoblotted with different antibodies: YAP1 (#4912), p-YAP1 (S127) (#13008), LATS1 (#9153), p-LATS1 (Thr1079) (#8654), MOB1 (#3863), p-MOB1 (Thr12) (#8843), p-MST1/p-MST2 (Thr183/Thr180) (#3681), p21 (#2947), PARP (#9532), ERK, STAT, and GAPDH (#5174) from Cell Signaling, Beverly, Mass., United States; STK4 (ab57836) (from Abcam, Cambridge, Mass., United States); PUMA (sc-28226), BAX (sc-20067), from Santa Cruz, Dallas, Tex., United States; β-actin from Sigma-Aldrich (St. Louis, Mo., United States). All antibodies were diluted 1:500, except for β-actin antibody (1:50,000 dilution). In FIG. 8, H929 cells were treated with Compound I-9 or DMSO at 1 μM concentration for 24 hours. Lysates were then obtained and immunoblot was performed using antibodies against PARP, YAP1, PUMA, BAX. p21, and GAPDH.
In FIG. 10A, H929 and MM.1S cells were treated with Compound I-1 or DMSO at 1 μM and 10 μM concentrations for 16 hours. Lysates were then obtained and immunoblot was performed using antibodies against YAP1 and GAPDH.
In FIG. 12, H929 and MM. 1S cells were treated with Compound I-9, Compound I-12, or DMSO at 3 μM and 10 μM concentrations for 72 hours. Lysates were then obtained and immunoblot was performed using antibodies against YAP1 and Actin as loading control.
FIG. 13 show a Western blot of H929 and MM.1S cells treated with Compound I-13, Compound I-28, Compound I-9, KIN001-305, BMS536924, or DMSO at 1 μM concentration for 16 hours. Lysates were then obtained and immunoblot was performed using antibodies against YAP1, Actin, and pMOB1.

p-MOB1 = test: Western blotting; assay type: cell-based; conditions: MM.1S cells, 1 μM and 10 μM, 6 hours
Description: as §3, §4
In FIGS. 26A-26J, MM.1S cells were treated with Compound I-6, Compound I-31, Compound I-30, Compound I-22, Compound I-27, Compound I-1, Compound I-23, Compound I-13, Compound I-28, Compound I-9, or DMSO at 1 μM and 10 μM concentrations for 6 hours. Lysates were then obtained and immunoblot was performed using antibodies against MOB1 and p-MOB1. As shown from FIGS. 26A-26J, Compound I-22, Compound I-27, Compound I-1, Compound I-23, Compound I-13, Compound I-28, and Compound I-9 reduced PMOB1 levels at different concentrations.

STK4 = STK4 (Homo sapiens (Human), UniProt Q13043); test: KiNativ Platform experiment, MM.1S cell lysates, biotinylated ATP, Western blot; assay type: binding; conditions: 10 μM, 20 minutes, then biotinylated ATP 10 minutes
Experimental: FIG. 32A and FIG. 32B show the results of a KiNativ™ Platform experiment obtained after incubating MM.1S cell lysates with 10 μM of the indicated compounds for 20 minutes, followed by incubation with biotinylated ATP for 10 minutes. FIG. 32A is a graph showing the ratio of MEK2 to STK4 derived from the Western blotting band signals in FIG. 32B, in MM.1S cell lysates treated with 10 μM of Compound I-9, I-13, or I-27 or KIN001-305 followed by incubation with biotinylated ATP. FIG. 32B is a Western blot showing the levels of STK4 and MEK2 in MM.1S cells treated with 10 μM of Compound I-9, I-13, or I-27 or KIN001-305 followed by incubation with biotinylated ATP.

STK24 (MST3), sequence (Q9Y6E0 whole entry): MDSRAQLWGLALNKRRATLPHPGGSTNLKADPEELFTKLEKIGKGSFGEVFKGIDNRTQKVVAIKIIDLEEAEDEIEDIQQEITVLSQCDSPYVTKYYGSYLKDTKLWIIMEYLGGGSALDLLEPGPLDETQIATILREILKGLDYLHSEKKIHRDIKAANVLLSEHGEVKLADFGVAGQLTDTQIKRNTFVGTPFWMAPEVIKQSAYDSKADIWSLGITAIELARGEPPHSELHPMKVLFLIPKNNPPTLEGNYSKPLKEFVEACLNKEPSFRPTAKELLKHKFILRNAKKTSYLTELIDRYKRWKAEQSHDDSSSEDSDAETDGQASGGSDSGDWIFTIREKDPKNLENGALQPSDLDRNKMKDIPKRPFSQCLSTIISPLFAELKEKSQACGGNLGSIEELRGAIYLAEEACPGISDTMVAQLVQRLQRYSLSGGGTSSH
STK3 (MST2), sequence (Q13188 whole entry): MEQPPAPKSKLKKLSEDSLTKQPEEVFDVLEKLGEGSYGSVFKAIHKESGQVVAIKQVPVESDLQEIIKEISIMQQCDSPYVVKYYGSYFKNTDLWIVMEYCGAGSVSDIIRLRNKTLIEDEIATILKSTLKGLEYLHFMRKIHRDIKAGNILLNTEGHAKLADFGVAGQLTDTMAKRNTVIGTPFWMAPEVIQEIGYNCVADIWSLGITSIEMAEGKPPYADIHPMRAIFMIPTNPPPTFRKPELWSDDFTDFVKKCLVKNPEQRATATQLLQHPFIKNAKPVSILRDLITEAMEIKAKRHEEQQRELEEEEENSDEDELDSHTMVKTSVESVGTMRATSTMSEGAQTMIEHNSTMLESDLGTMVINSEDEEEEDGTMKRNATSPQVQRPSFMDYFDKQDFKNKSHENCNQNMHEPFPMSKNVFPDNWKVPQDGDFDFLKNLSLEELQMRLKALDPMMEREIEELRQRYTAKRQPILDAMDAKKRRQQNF
STK4 (MST1), sequence (Q13043 whole entry): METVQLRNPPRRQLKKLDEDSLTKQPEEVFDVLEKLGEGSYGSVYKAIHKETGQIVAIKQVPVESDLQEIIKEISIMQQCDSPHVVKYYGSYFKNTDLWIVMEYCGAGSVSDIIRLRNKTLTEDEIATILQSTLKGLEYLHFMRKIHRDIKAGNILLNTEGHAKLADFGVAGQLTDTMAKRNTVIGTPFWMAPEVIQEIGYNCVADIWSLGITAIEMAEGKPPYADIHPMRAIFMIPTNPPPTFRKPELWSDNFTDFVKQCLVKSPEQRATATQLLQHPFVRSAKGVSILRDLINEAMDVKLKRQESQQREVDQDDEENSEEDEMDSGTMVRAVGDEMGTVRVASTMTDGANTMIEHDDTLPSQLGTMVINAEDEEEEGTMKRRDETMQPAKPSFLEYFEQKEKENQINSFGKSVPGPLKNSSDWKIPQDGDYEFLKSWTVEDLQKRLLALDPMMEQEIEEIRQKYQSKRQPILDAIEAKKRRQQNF
STK4, sequence (Q13043 whole entry): as above

| Structure (SMILES) | IC50 (STK24 (MST3)) [nM] | IC50 (STK4 (MST1)) | IC50 (STK3 (MST2)) [nM] | affinity for STK4, as of ATP binding (STK4) | YAP1 levels (YAP1) | PMOB1 levels (p-MOB1) |
| --- | --- | --- | --- | --- | --- | --- |
| Nc1ncc(-c2cc([N+](=O)[O-])ccc2Cl)cc1-c1ccc2c(c1)CCNC2=O [Compound I-4, 6-(2-amino-5-(2-chloro-5-nitrophenyl)pyridin-3-yl)-3,4-dihydroisoquinolin-1(2H)-one] | > 900 | > 900 nM | – | – | – | – |
| Nc1ncc(-c2cnccc2F)cc1-c1ccc2c(c1)CCNC2=O [Compound I-5, 6-(6-amino-4′-fluoro-[3,3′-bipyridin]-5-yl)-3,4-dihydroisoquinolin-1(2H)-one] | > 900 | 200 to 900 nM | – | – | – | – |
| CCNC(=O)c1ccc(F)c(-c2cnc(N)c(-c3ccc4c(c3)CCNC4=O)c2)c1 [Compound I-6, 3-(6-amino-5-(1-oxo-1,2,3,4-tetrahydroisoquinolin-6-yl)pyridin-3-yl)-N-ethyl-4-fluorobenzamide] | > 900 | > 900 nM | – | – | – | – |
| Nc1ncc(-c2cc([N+](=O)[O-])c(NCc3ccccc3)cc2F)cc1-c1ccc2c(c1)CCNC2=O [Compound I-27, 6-(2-amino-5-(4-(benzylamino)-2-fluoro-5-nitrophenyl)pyridin-3-yl)-3,4-dihydroisoquinolin-1(2H)-one] | – | 40 to 200 nM | – | highest affinity | – | reduced |
| CN(C1CC1)S(=O)(=O)c1ccc(-c2cnc(N)c(-c3ccc4c(c3)CNC4=O)c2)c(F)c1 [Compound I-74, 4-(6-amino-5-(1-oxoisoindolin-5-yl)pyridin-3-yl)-N-cyclopropyl-3-fluoro-N-methylbenzenesulfonamide] | > 900 | < 40 nM and 40 to 200 nM | < 40 | – | – | – |
| N#Cc1cccc(-c2cnc(N)c(-c3ccc4c(c3)CCNC4=O)c2)c1 [Compound I-75, 3-(6-amino-5-(1-oxo-1,2,3,4-tetrahydroisoquinolin-6-yl)pyridin-3-yl)benzonitrile] | 200 to 900 | 40 to 200 nM | 40 to 200 | – | – | – |
| Nc1ncc(-c2scnc2Cl)cc1-c1ccc2c(c1)CCNC2=O [Compound I-76, 6-(2-amino-5-(4-chlorothiazol-5-yl)pyridin-3-yl)-3,4-dihydroisoquinolin-1(2H)-one] | > 900 | < 40 nM and 40 to 200 nM | 40 to 200 | – | – | – |

Second part, led by results:

| IC50 (STK24 (MST3)) [nM] | IC50 (STK4 (MST1)) | IC50 (STK3 (MST2)) [nM] | affinity for STK4, as of ATP binding (STK4) | Structure (SMILES) | YAP1 levels (YAP1) | PMOB1 levels (p-MOB1) |
| --- | --- | --- | --- | --- | --- | --- |
| > 900 | < 40 nM | – | – | Nc1ncc(-c2cccc([N+](=O)[O-])c2)cc1-c1ccc2c(c1)CCNC2=O [Compound I-2, 6-(2-amino-5-(3-nitrophenyl)pyridin-3-yl)-3,4-dihydroisoquinolin-1(2H)-one] | – | – |
| > 900 | 40 to 200 nM | – | – | Nc1ncc(-c2ccccc2F)cc1-c1ccc2c(c1)CCNC2=O [Compound I-3, 6-(2-amino-5-(2-fluorophenyl)pyridin-3-yl)-3,4-dihydroisoquinolin-1(2H)-one] | – | – |
| 200 to 900 | 40 to 200 nM | 40 to 200 | – | Nc1ncc(-c2cccc(S(=O)(=O)NC3CC3)c2)cc1-c1ccc2c(c1)CCNC2=O [Compound I-12, 3-(6-amino-5-(1-oxo-1,2,3,4-tetrahydroisoquinolin-6-yl)pyridin-3-yl)-N-cyclopropylbenzenesulfonamide] | upregulation | – |
| – | 40 to 200 nM | 40 to 200 | – | Nc1ncc(-c2cc([N+](=O)[O-])c(Cl)cc2F)cc1-c1ccc2c(c1)CCNC2=O [Compound I-22, 6-(2-amino-5-(4-chloro-2-fluoro-5-nitrophenyl)pyridin-3-yl)-3,4-dihydroisoquinolin-1(2H)-one] | – | reduced |
| – | < 40 nM | 40 to 200 | – | Nc1ncc(-c2cc3c(cc2F)OCC(=O)N3)cc1-c1ccc2c(c1)CCNC2=O [Compound I-23, 6-(6-amino-5-(1-oxo-1,2,3,4-tetrahydroisoquinolin-6-yl)pyridin-3-yl)-7-fluoro-2H-benzo[b][1,4]oxazin-3(4H)-one] | – | reduced |
| 40 to 200 | < 40 nM | < 40 | – | COc1cc(S(=O)(=O)N(C)C2CC2)ccc1-c1cnc(N)c(-c2ccc3c(c2)CCNC3=O)c1 [Compound I-72, 4-(6-amino-5-(1-oxo-1,2,3,4-tetrahydroisoquinolin-6-yl)pyridin-3-yl)-N-cyclopropyl-3-methoxy-N-methylbenzenesulfonamide] | – | – |
| – | 40 to 200 nM | – | – | Nc1ncc(-c2scnc2Cl)cc1-c1ccc2c(c1)CCNC2=O [Compound I-77, 6-(2-amino-5-(4-chlorothiazol-5-yl)pyridin-3-yl)-3,4-dihydroisoquinolin-1(2H)-one] | – | – |
| – | < 40 nM | – | highest affinity | CN(C1CC1)S(=O)(=O)c1ccc(-c2cnc(N)c(-c3ccc4c(c3)CCNC4=O)c2)cc1 [KIN001-305, reference compound] | – | – |
